Like-named read-outs stand apart in the source and are kept apart here. One block for each molecule: values may come before it.
Tests used:
SkMel-28 cells [1] = test: MTT cell proliferation assay, SkMel-28; type: cell-based, human; details: for IC50: SK-MEL-28, 120 h
Protocol: (§1) Four human cancer cells lines (SkMel-28, MCF7, H1264 and Caco-2) were obtained from the American Type Tissue Culture Collection (ATCC) and were maintained in appropriate culture mediums supplemented with 10% fetal calf serum (FCS) and antibiotics, under standard tissue culture conditions (e.g. modified Eagle's medium (MEM) containing 1 mM sodium pyruvate and 10% fetal bovine serum (FES) under 5% CO2/95% air atmosphere.). Cell injury was evaluated by a colorimetric assay for mitochondrial function using the 3-(4,5-dimethylthiazolyl-2)-2,5-diphenyltetrazolium bromide (MTT) cell proliferation assay. For this assay cells were plated in a 96-well plate at a density of 1000 cells/well and grown until they reached 50-60% confluence. Human epidermal melanocytes (HeM) were supplied by Gentaur and were cultured in HAM-F10 medium supplemented with 10% FCS, antibiotics and the human melanocyte growth supplement (Gentaur).
Cell injury was evaluated by a colorimetric assay for mitochondrial function using the 3-(4,5-dimethylthiazolyl-2)-2,5-diphenyltetrazolium bromide (MTT) cell proliferation assay. For this assay cells were plated in a 96-well plate at a density of 1000 cells/well and grown until they reached 30% confluence. Co-treatments of SkMel-28 cells with TMECG and other reagents were carried out by supplementing medium cultures with S-adenosylmethionine (SAM), adenosine or dipyridamole (all from Sigma).

[2] = tested on: B16/F10 melanoma cell tumours; test: Primary tumour model, B16/F10 melanoma in C57/B16 mice; type: in vivo, mouse
Text: Translational therapy was then designed to probe the efficacy of this combination on mice induced melanoma tumor. Injection of 5×10^5 B16/F10 melanoma cells in the back of C57/B16 mice formed a blackish tumor mass, which in untreated control mice reached to a tumor area of 3.7±0.7 and 9.3±1.1 cm2 in female and male, respectively, after 21 days of cells inoculation.

Caco-2 cells = test: MTT cell proliferation assay, Caco-2; type: cell-based, human; details: Caco-2
Protocol: as §1

rHDHFR [3] = molecular target: T1, rHDHFR (Homo sapiens, UniProt P00374); test: rHDHFR binding: fluorescence titration and stopped-flow fluorescence; details: for koff: calculated from KI=koff/kon; for Ki: dissociation constant, free rHDHFR, fluorescence titration; for Ki / kon: pH 7.4, 25° C.; for kon: stopped-flow fluorescence
T1 construct: purchased Sigma
T1 sequence (P00374 1-187): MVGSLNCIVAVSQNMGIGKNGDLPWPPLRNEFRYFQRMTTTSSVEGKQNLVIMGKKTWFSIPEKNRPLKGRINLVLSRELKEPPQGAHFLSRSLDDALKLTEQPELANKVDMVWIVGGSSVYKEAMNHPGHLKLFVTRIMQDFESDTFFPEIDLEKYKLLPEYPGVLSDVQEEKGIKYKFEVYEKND
Protocol: The experiments were carried out in a buffer containing 2-(N-morpholino)ethanesulfonic acid (Mes, 0.025 M), sodium acetate (0.025 M), tris-(hydroxymethyl)aminomethane (Tris 0.05 M), and NaCl (0.1 M) at pH 7.4 and 25° C. in the presence of QM and rHDHFR (0.5 μM).
Stopped-flow fluorescence experiments were carried out at pH 7.4 and 25° C. using an enzyme concentration of 0.25 μM. The reaction of rHDHFR with inhibitors was observed under pseudo-first order conditions by fluorescence at 340 nm (excitation at 290 nm). The data points s are the means of at least 3 (normally 5) repeat observations±SD. […] Aliquots (20 μl) of the incubation mixture was then diluted 50-fold into a reaction mixture containing the buffer, NADPH (100 μM), and DHF (10 μM) to give a final enzyme concentration of 1.5 nM.
(§2) The activity of rHDHFR was determined at 25° C. by following the decrease in the absorbance of NADPH and DHF at 340 nm (ε=11800 M-1 cm−1) (Stone and Morrison, 1986). Progress curves were obtained under ordered conditions ([NADPH]>>[DHF]). rHDHFR inhibition constants were calculated as described by Navarro-Perán et al., 2005b. The dissociation constant for the binding of inhibitors to free rHDHFR was determined at 25° C. by fluorescence titration in an automatic-scanning Perkin-Elmer LS50B spectrofluorimeter. Fluorescence emission spectra were recorded when rHDHFR fluorescence was excited at 290 nm. Stopped-flow fluorescence experiments were carried out using an Applied Photophysics Ltd. Pi-Star 180 spectrometer with a stopped-flow unit at 25° C.

rHDHFR [4] = molecular target: T1, rHDHFR; test: rHDHFR inhibition, progress curves; type: biochemical; details: for Decrease % further EI reactions: decrease of KI to KI* by further EI-complex reactions; for Ki: overall (effective) inhibition constant, read-out: KI*
Protocol: The experiments were carried out in the same buffer as fluorescence experiments in the presence of NADPH (100 μM), DHF (10 μM), and rHDHFR (1.5 nM).
as §2

human tyrosinase = molecular target: T2, human tyrosinase (Homo sapiens, UniProt P14679); details: recombinant human tyrosinase (Kong et al., 2000); read-out: Michaelis-Menten constant (Km), value reported; cited from earlier work
T2 sequence (P14679 19-529): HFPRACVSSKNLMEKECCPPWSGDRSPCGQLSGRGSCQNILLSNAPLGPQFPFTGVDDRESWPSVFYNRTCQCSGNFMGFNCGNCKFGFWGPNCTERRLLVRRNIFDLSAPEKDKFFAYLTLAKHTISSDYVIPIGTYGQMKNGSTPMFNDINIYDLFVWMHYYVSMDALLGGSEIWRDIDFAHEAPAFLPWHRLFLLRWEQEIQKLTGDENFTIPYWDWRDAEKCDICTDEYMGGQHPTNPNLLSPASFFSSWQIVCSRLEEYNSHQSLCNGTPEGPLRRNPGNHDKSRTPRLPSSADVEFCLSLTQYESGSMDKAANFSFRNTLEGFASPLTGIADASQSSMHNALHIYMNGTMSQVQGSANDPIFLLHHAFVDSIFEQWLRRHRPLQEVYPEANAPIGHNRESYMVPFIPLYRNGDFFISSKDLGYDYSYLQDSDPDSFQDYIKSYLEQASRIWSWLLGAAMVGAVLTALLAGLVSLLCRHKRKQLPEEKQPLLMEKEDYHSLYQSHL

SkMel-28 cells [5] = test: Microscopy of melanosome melanin content; type: cell-based, human; details: treated SkMel-28 versus untreated
Protocol: Confluent monolayers of SkMel-28 were harvested with a mixture of 0.05% trypsin, 0.53 mmol/L EDTA and washed once in 0.25 mol/L sucrose by centrifugation at 700×g for 5 min at 4° C. They were then homogenized on ice using 20 strokes of an ice-cold Dounce homogenizer and centrifuged at 700×g for 10 min at 4° C. The resultant postnuclear supernatant was centrifuged at 17,000×g for 15 min at 4° C. to yield a melanosome-enriched granular fraction (17). This fraction was resuspended in 0.5-2 ml of ice-cold 0.25 mol/L sucrose, 10 mmol/L HEPES, pH 7.0 and fixed for 1 h at room temperature in 2% glutaraldehyde, 2% paraformaldehyde in 0.1 mol/L sodium cacodylate buffer, pH 7.3. The fixative was then removed and the samples stored in PBS containing 4% sucrose at 4° C. Samples were subsequently dehydrated with graded alcohols and embedded in epoxy resin. This section were stained with uranyl acetate and lead citrate and examined with a Zeiss EM10 electron microscope.

[6] = tested on: Caco-2 and SkMel-28 cells; test: Cellular uptake of ECG, TMECG and QM; type: in vitro ADME, human; details: 50 μM catechins
Protocol: Cellular uptake was determined by the difference between the initial concentration of catechin and the calculated at specific times in the cellular medium, and expressed as a percentage of catechin at zero time. The values presented are the mean percentage determined from five independent experiments±SD.
For cellular uptake experiments Caco-2 and SkMel-28 cells were grown until reaching 90% confluence. Then, 20 ml of cellular medium containing 50 μM catechins and 0.2 mM ascorbic acid was added and incubated for 60 h in a CO2 incubator. At specified times 1 ml-aliquots were taken and frozen in liquid N2 until the catechin concentrations were determined by HPLC. Catechins were identified by their characteristic elution times and their concentration calculated with respect to calibration curves of known concentrations of catechins.

[7] = pH dependence of absorbance and stability of the tyrosinase product; type: physicochemical
Text: We studied the oxidation of TMECG by tyrosinase at pH 5.5. […] The initial formation of o-Q was confirmed by including reducing agents such as ascorbic acid or NADPH in the reaction medium. […] The pH transition might represent the equilibrium between the protonated form (QMH) and the deprotonated form (QM^−), a species which is stabilized by resonance and FIG. 9E represents the possible abundance of QM species in different melanocyte compartments.

MAT2A = details: cited from earlier work
[8] = tested on: 4T1 mice breast cancer cell line; test: 4T1 breast cancer model in Balb/c mice; type: in vivo, mouse; details: 40 mg/Kg/d intraperitoneally, Balb/c female mice
Protocol: The 4T1 mice breast cancer cell line (ATCC) was used for tumour implantation. This cell line is highly metastatic and after its injection on the back of the Balb/c mice it expanded to the lungs forming metastasis in this organ. Initial experiments were designed for injection in the back to follow tumour growth and lung metastasis.
We treated 6 Balb/c female mice were treated intraperitoneally with TMCG (40 mg/Kg/d) and compared with 6 untreated (control) mice.

Molecule: Nc1ncnc2c1ncn2[C@@H]1O[C@H](CO)[C@@H](O)[C@H]1O [Adenosine, adenosine]
effect of adenosine alone on SkMel-28 growth (SkMel-28 cells [1]; up to 500 μM): had not any detectable effect

Molecule: OCCN(CCO)c1nc(N2CCCCC2)c2nc(N(CCO)CCO)nc(N3CCCCC3)c2n1 [Dipyridamole, dipyridamole, reference compound]
effect on tumor growth ([2]; females, DIPY 10 mg/Kg/d alone): had not visible effects on tumor growth
effect of single treatments ([2]; male mice): not effective
IC50 (SkMel-28 cells [1]; Homo sapiens, dipyridamole alone, SkMel-28, read-out: IC50 (at 5 days)): 20 µM
IC50 (SkMel-28 cells [1]; Homo sapiens, in the presence of 50 μM TMECG, SkMel-28, read-out: IC50 (at 5 days) in the presence of TMECG): < 1 µM

Molecule: Oc1cc(O)c2c(c1)O[C@H](c1ccc(O)c(O)c1)[C@H](O)C2 [EC, Epicatechin, reference compound]
effect of natural and synthetic catechins on Caco-2 growth (Caco-2 cells): no detectable activity

koff (rHDHFR [3]): 0.12 s⁻¹
Ki (rHDHFR [3]): 0.92 µM
kon (rHDHFR [3]): 130000 M⁻¹ s⁻¹
Decrease % further EI reactions (rHDHFR [4]): 28 −fold
Ki (rHDHFR [4]): 0.033 µM
Molecule: O=C(O[C@@H]1Cc2c(O)cc(O)cc2O[C@@H]1c1cc(O)c(O)c(O)c1)c1cc(O)c(O)c(O)c1 [EGCG, reference compound]

Molecule: N[C@@H](Cc1ccc(O)c(O)c1)C(=O)O [L-dopa]
Km (human tyrosinase): 360 µM

Molecule: CN(Cc1cnc2nc(N)nc(N)c2n1)c1ccc(C(=O)N[C@@H](CCC(=O)O)C(=O)O)cc1 [MTX, methotrexate]
melanosome melanin content (SkMel-28 cells [5]): much less melanin content
effect of leucovorin co-treatment on growth inhibition (SkMel-28 cells [1]; 100 μM leucovorin, MTX 1 μM or TMECG 50 μM, 3 days): effectively reversed this inhibition
inhibition at 1 µM (SkMel-28 cells [1]; Homo sapiens, SK-MEL-28, 72 h, 1 μM, 3 days, SkMel-28, read-out: growth inhibited): 70%
effect of sulfasalazine (RFC inhibitor) on antiproliferative action (SkMel-28 cells [1]; sulfasalazine 0.5 mM, MTX 0.2 μM or TMECG 10 μM, 3 days): inhibited the antiproliferative action of MTX

reversibility of binding to rHDHFR (rHDHFR [3]): essentially irreversible
koff (rHDHFR [3]; read-out: koff): 0.00048 s⁻¹
Ki (rHDHFR [3]): 0.0082 ± 0.00011 µM
kon (rHDHFR [3]; read-out: kon): 58000 M⁻¹ s⁻¹
stability [7]: high stability over a wide pH range
pKa ([7]; absorbance at 470 nm vs pH, read-out: pKa of ionisable group): 6.9 ± 0.1
Decrease % further EI reactions (rHDHFR [4]): 0 −fold
Ki (rHDHFR [4]): 0.0082 µM
Molecule: COc1cc(C(=O)O[C@H](Cc2c(O)cc(O)cc2O)C(=O)c2ccc(O)c(O)c2)cc(OC)c1OC [QM]
cellular uptake / membrane transport [6]: limited degree of cell membrane diffusion

Molecule: C[S+](CC[C@H](N)C(=O)O)C[C@H]1O[C@@H](n2cnc3c(N)ncnc32)[C@H](O)[C@@H]1O (stereo partly shown) [SAM, S-adenosylmethionine, reference compound]
IC50 (MAT2A; Sullivan and Hoffman, 1983, read-out: IC50 for inhibition of MAT2): 60 µM
effect of SAM alone on SkMel-28 growth (SkMel-28 cells [1]; SAM alone): Only high amount of SAM (up to 100 μM) affected SkMel-28 growth

Molecule: COc1cc(C(=O)O[C@H]2Cc3c(O)cc(O)cc3O[C@@H]2c2ccc(O)c(O)c2)cc(OC)c1OC [TMCG, 3-O-(3,4,5-Trimethoxybenzoyl)-(−)-Catechin]
growth of metastases (lung tumor volume) [8]: slower growth of metastases

Molecule: CSCC[C@H](N)C(=O)O [methionine]
Km (MAT2A): 4 to 10 µM

Molecule: epicatechin-3-gallate [ECG, reference compound]
koff (rHDHFR [3]): 0.30 s⁻¹
Ki (rHDHFR [3]): 1.78 µM
kon (rHDHFR [3]): 170000 M⁻¹ s⁻¹
Decrease % further EI reactions (rHDHFR [4]): 19 −fold
Ki (rHDHFR [4]): 0.092 µM
